Measured values published in patent US20230276831A1, “Food/Beverage Article” (Kikkoman Corporation, priority 2020, published 2023).

What was measured:
Format in all cases: cell-based
[1] = tested on: Lactobacillus rennini (DSM 20253); assay: Antimicrobial action of licoricidin in liquid dressing, lightly-pickled vegetables and cooking vinegar (Test Example 9); conditions: conclusion of Test Example 9
Excerpt: Specifically, Koikuchi soy sauce (produced by Kikkoman Corporation), table vinegar, mirin, granulated sugar, kelp stock, and water were blended in amounts shown in the following Table 24, and the resulting mixture was heated to produce liquid dressing. The salt concentration of the obtained liquid dressing was 2.6% (w/v), the alcohol concentration was 0.8% (v/v), the pH was 4.2.
Specifically, Usukuchi soy sauce (produced by Kikkoman Corporation), table vinegar, corn syrup, isomerized sugar, salt, granulated sugar, sodium glutamate (MSG), lemon fruit juice, kelp stock, and water were blended in amounts shown in the following Table 25, and the mixture was heated to produce seasoning liquid for lightly-pickled vegetables. Chinese cabbages were fully soaked therein to produce lightly-pickled vegetables. […]
Licoricidin (produced by ChemFaces) was added to each of the above-mentioned produced liquid dressing, lightly-pickled vegetables, and cooking vinegar to concentrations of 1 ppm, 5 ppm, 10 ppm, 25 ppm, and 50 ppm. […] After the culture, the number of lactic acid bacteria was measured using the GAM agar medium “Nissui”. The liquid dressing, the lightly-pickled vegetables, and the cooking vinegar to which licoricidin was not added were used as respective control groups, and the antimicrobial activity was evaluated in comparison with the number of lactic acid bacteria in the control group. […]

[2] = tested on: Lactobacillus acidipiscis NBRC 102164; assay: Antimicrobial action of licoricidin in liquid seasoning (1), lactic acid bacteria D; parameters: key: A: The bacterial count decreases to less than 10% of the bacterial count of the control group.; B: The bacterial count decreases to 10% or more and less than 50% of the bacterial count of the control group.; C: The bacterial count decreases to 50% or more and less than 100% of the bacterial count of control group.; D: The bacterial count is the same as the bacterial count of the control group
Experimental: (§1) Commercially available whole soybean soy sauce (produced by Kikkoman Corporation) was electrodialyzed and then concentrated under reduced pressure to obtain soy sauce at a salt concentration of 0% (w/v) and an alcohol concentration of 0% (v/v). Then, salt and/or alcohol was added to the above-mentioned obtained soy sauce, and the mixture was heat-treated to produce soy sauces at salt concentrations and alcohol concentrations shown in the following Table 5. The pHs of the soy sauces were 4.9 to 5.0.
Specifically, components contained in dried bonito was extracted with alcohol and water; sugar, salt, and seasonings were blended with the obtained extract; and the resulting mixture was heated to produce bonito stock. The salt concentration of the obtained bonito stock was 0.2% (w/v), the alcohol concentration was 0.15% (v/v), and the pH was 6.1.
Specifically, Koikuchi soy sauce (produced by Kikkoman Corporation), granulated sugar, potato starch, and water were blended in amounts shown in following Table 7, and the resulting mixture was heated to produce sauce. The salt concentration of the obtained sauce was 5.3% (w/v), the alcohol concentration was 0.8% (v/v), and the pH was 5.0.
Specifically, the components contained in dried bonito was extracted with water; Koikuchi soy sauce (produced by Kikkoman Corporation), sugar, and salt were blended with the obtained extract; and the resulting mixture was heated to produce Japanese seasoned soup stock. The salt concentration of the obtained Japanese seasoned soup stock was 3% (w/v), the alcohol concentration was 0.4% (v/v), and the pH was 5.5.
Licoricidin (produced by ChemFaces) was added to each of the liquid seasonings produced in the above-mentioned (1) to concentrations of 1 ppm, 5 ppm, 10 ppm, 25 ppm, and 50 ppm. Lactic acid bacteria described in the following Table 9 were then added to 10^6 to 10^7 cells/mL and cultured at 30° C. for 7 days. After the culture, the number of lactic acid bacteria was measured using the GAM agar medium “Nissui”. Liquid seasoning to which licoricidin was not added was used as a control group, and the antimicrobial activity was evaluated in comparison with the number of lactic acid bacteria in the control group. The evaluation was performed using the criterion shown below.
• A: The bacterial count decreases to less than 10% of the bacterial count of the control group. • B: The bacterial count decreases to 10% or more and less than 50% of the bacterial count of the control group. • C: The bacterial count decreases to 50% or more and less than 100% of the bacterial count of control group. • D: The bacterial count is the same as the bacterial count of the control group.

[3] = tested on: Lactobacillus rennini DSM 20253; assay: Antimicrobial action of licoricidin in liquid seasoning (1), lactic acid bacteria A; conditions: conclusion of Test Example 4; various salt concentration and various alcohol concentrations; lactic acid bacteria A to D
Experimental: as §1, with “5.0. […]” for “5.0.”
Licoricidin (produced by ChemFaces) was added to each of the liquid seasonings produced in the above-mentioned (1) to concentrations of 1 ppm, 5 ppm, 10 ppm, 25 ppm, and 50 ppm. Lactic acid bacteria described in the following Table 9 were then added to 10^6 to 10^7 cells/mL and cultured at 30° C. for 7 days. After the culture, the number of lactic acid bacteria was measured using the GAM agar medium “Nissui”. Liquid seasoning to which licoricidin was not added was used as a control group, and the antimicrobial activity was evaluated in comparison with the number of lactic acid bacteria in the control group. The evaluation was performed using the criterion shown below. […]

COc1c(CC=C(C)C)c(O)cc2c1C[C@H](c1ccc(O)c(CC=C(C)C)c1O)CO2 [Licoricidin, 4-[(R)-7-hydroxy-5-methoxy-6-(3-methyl-2-butenyl)chroman-3-yl]-2-(3-methyl-2-butenyl)-1,3-benzenediol]
Antimicrobial activity to lactic acid bacteria in the various liquid seasonings and the food [1]: exhibited antimicrobial activity
Antimicrobial activity ([2]; Bonito stock (salt 0.2% (w/v), alcohol 0.15% (v/v), pH 6.1), licoricidin 1 ppm): A (The bacterial count decreases to less than 10% of the bacterial count of the control group.)
Antimicrobial activity ([2]; Bonito stock (salt 0.2% (w/v), alcohol 0.15% (v/v), pH 6.1), licoricidin 5 ppm): A (The bacterial count decreases to less than 10% of the bacterial count of the control group.)
Antimicrobial activity ([2]; Bonito stock (salt 0.2% (w/v), alcohol 0.15% (v/v), pH 6.1), licoricidin 10 ppm): A (The bacterial count decreases to less than 10% of the bacterial count of the control group.)
Antimicrobial activity ([2]; Bonito stock (salt 0.2% (w/v), alcohol 0.15% (v/v), pH 6.1), licoricidin 25 ppm): A (The bacterial count decreases to less than 10% of the bacterial count of the control group.)
Antimicrobial activity ([2]; Bonito stock (salt 0.2% (w/v), alcohol 0.15% (v/v), pH 6.1), licoricidin 50 ppm): A (The bacterial count decreases to less than 10% of the bacterial count of the control group.)
Antimicrobial activity ([2]; Japanese seasoned soup stock (salt 3% (w/v), alcohol 0.4% (v/v), pH 5.5), licoricidin 1 ppm): D
Antimicrobial activity ([2]; Japanese seasoned soup stock (salt 3% (w/v), alcohol 0.4% (v/v), pH 5.5), licoricidin 5 ppm): A (The bacterial count decreases to less than 10% of the bacterial count of the control group.)
Antimicrobial activity ([2]; Japanese seasoned soup stock (salt 3% (w/v), alcohol 0.4% (v/v), pH 5.5), licoricidin 10 ppm): A (The bacterial count decreases to less than 10% of the bacterial count of the control group.)
Antimicrobial activity ([2]; Japanese seasoned soup stock (salt 3% (w/v), alcohol 0.4% (v/v), pH 5.5), licoricidin 25 ppm): A (The bacterial count decreases to less than 10% of the bacterial count of the control group.)
Antimicrobial activity ([2]; Japanese seasoned soup stock (salt 3% (w/v), alcohol 0.4% (v/v), pH 5.5), licoricidin 50 ppm): A (The bacterial count decreases to less than 10% of the bacterial count of the control group.)
Antimicrobial activity ([2]; Sauce (salt 5.3% (w/v), alcohol 0.8% (v/v), pH 5.0), licoricidin 1 ppm): C (The bacterial count decreases to 50% or more and less than 100% of the bacterial count of control group.)
Antimicrobial activity ([2]; Sauce (salt 5.3% (w/v), alcohol 0.8% (v/v), pH 5.0), licoricidin 5 ppm): C (The bacterial count decreases to 50% or more and less than 100% of the bacterial count of control group.)
Antimicrobial activity ([2]; Sauce (salt 5.3% (w/v), alcohol 0.8% (v/v), pH 5.0), licoricidin 10 ppm): A (The bacterial count decreases to less than 10% of the bacterial count of the control group.)
Antimicrobial activity ([2]; Sauce (salt 5.3% (w/v), alcohol 0.8% (v/v), pH 5.0), licoricidin 25 ppm): A (The bacterial count decreases to less than 10% of the bacterial count of the control group.)
Antimicrobial activity ([2]; Sauce (salt 5.3% (w/v), alcohol 0.8% (v/v), pH 5.0), licoricidin 50 ppm): A (The bacterial count decreases to less than 10% of the bacterial count of the control group.)
Antimicrobial activity ([2]; Soy sauce, salt 0% (w/v), alcohol 0% (v/v), licoricidin 1 ppm): C (The bacterial count decreases to 50% or more and less than 100% of the bacterial count of control group.)
Antimicrobial activity ([2]; Soy sauce, salt 0% (w/v), alcohol 0% (v/v), licoricidin 5 ppm): C (The bacterial count decreases to 50% or more and less than 100% of the bacterial count of control group.)
Antimicrobial activity ([2]; Soy sauce, salt 0% (w/v), alcohol 0% (v/v), licoricidin 10 ppm): B (The bacterial count decreases to 10% or more and less than 50% of the bacterial count of the control group.)
Antimicrobial activity ([2]; Soy sauce, salt 0% (w/v), alcohol 0% (v/v), licoricidin 25 ppm): A (The bacterial count decreases to less than 10% of the bacterial count of the control group.)
Antimicrobial activity ([2]; Soy sauce, salt 0% (w/v), alcohol 0% (v/v), licoricidin 50 ppm): A (The bacterial count decreases to less than 10% of the bacterial count of the control group.)
Antimicrobial activity ([2]; Soy sauce, salt 4% (w/v), alcohol 0% (v/v), licoricidin 1 ppm): D
Antimicrobial activity ([2]; Soy sauce, salt 4% (w/v), alcohol 0% (v/v), licoricidin 5 ppm): A (The bacterial count decreases to less than 10% of the bacterial count of the control group.)
Antimicrobial activity ([2]; Soy sauce, salt 4% (w/v), alcohol 0% (v/v), licoricidin 10 ppm): A (The bacterial count decreases to less than 10% of the bacterial count of the control group.)
Antimicrobial activity ([2]; Soy sauce, salt 4% (w/v), alcohol 0% (v/v), licoricidin 25 ppm): A (The bacterial count decreases to less than 10% of the bacterial count of the control group.)
Antimicrobial activity ([2]; Soy sauce, salt 4% (w/v), alcohol 0% (v/v), licoricidin 50 ppm): A (The bacterial count decreases to less than 10% of the bacterial count of the control group.)
Antimicrobial activity ([2]; Soy sauce, salt 8% (w/v), alcohol 0% (v/v), licoricidin 1 ppm): C (The bacterial count decreases to 50% or more and less than 100% of the bacterial count of control group.)
Antimicrobial activity ([2]; Soy sauce, salt 8% (w/v), alcohol 0% (v/v), licoricidin 5 ppm): A (The bacterial count decreases to less than 10% of the bacterial count of the control group.)
Antimicrobial activity ([2]; Soy sauce, salt 8% (w/v), alcohol 0% (v/v), licoricidin 10 ppm): A (The bacterial count decreases to less than 10% of the bacterial count of the control group.)
Antimicrobial activity ([2]; Soy sauce, salt 8% (w/v), alcohol 0% (v/v), licoricidin 25 ppm): A (The bacterial count decreases to less than 10% of the bacterial count of the control group.)
Antimicrobial activity ([2]; Soy sauce, salt 8% (w/v), alcohol 0% (v/v), licoricidin 50 ppm): A (The bacterial count decreases to less than 10% of the bacterial count of the control group.)
Antimicrobial activity ([2]; Soy sauce, salt 12% (w/v), alcohol 0% (v/v), licoricidin 1 ppm): D
Antimicrobial activity ([2]; Soy sauce, salt 12% (w/v), alcohol 0% (v/v), licoricidin 5 ppm): A (The bacterial count decreases to less than 10% of the bacterial count of the control group.)
Antimicrobial activity ([2]; Soy sauce, salt 12% (w/v), alcohol 0% (v/v), licoricidin 10 ppm): A (The bacterial count decreases to less than 10% of the bacterial count of the control group.)
Antimicrobial activity ([2]; Soy sauce, salt 12% (w/v), alcohol 0% (v/v), licoricidin 25 ppm): A (The bacterial count decreases to less than 10% of the bacterial count of the control group.)
Antimicrobial activity ([2]; Soy sauce, salt 12% (w/v), alcohol 0% (v/v), licoricidin 50 ppm): A (The bacterial count decreases to less than 10% of the bacterial count of the control group.)
Antimicrobial activity to various lactic acid bacteria [3]: exhibited antimicrobial activity
